Article PMC12814168, “Fast, Bright, and Reversible Fluorescent Labeling of Rhodamine-Binding Proteins” (Journal of the American Chemical Society, 2025)
Values joined by “and” are separate entries in the source; they are usually repeats but may differ in a detail not shown here. Equal entries are not always repeated. Where two headings read alike, the source gives them in different places.

Experiments:
Rho-tag [1] = biological target: T1, Rho-tag (Chlorobaculum tepidum, UniProt Q8KFZ1, V17Q/Q25R/S33N/E36V/H40T/K51V/F62Y/M64F/S65D/A66M/G67E/E70D/V87I/G107D/D121K/F125Y/D126E/N138A/S152V); assay: Fluorescence polarization at constant 20 nM TMR-linked ligand with serial Rho-tag dilutions (0-200 uM), pH 7.3, 25 °C, three independent measurements.; assay type: binding; settings: SD, n = 3; read-out: KD [µM] (Supplementary Table 4)
T1 construct: gene CT0179; His10-TEV, recombinant from E. coli
Method: (§18) Binding affinities KD was derived from fluorescence polarization experiments at constant dye concentration
(§19) (20 nM) and serial protein dilutions (0 – 200 µM). Average data and standard deviation from three
independent measurements (N = 3).
(§20) Biochemical and Spectral Characterization
(§21) Serial protein dilutions (0 – 200 μM) were prepared in activity buffer and transferred to black flat bottom low-volume 384-well plates (Greiner). Rhodamine dyes (0.5 – 20 nM) were added in activity buffer containing 1% (w/v) bovine serum albumin (BSA, Fraction V, Roth) using a 384-channel VIAFLO pipettor (Integra) at a 1:1 mixing ratio.
(§22) JF 646) or fluorescence polarization (FP, all other dyes) measurements were conducted on a Spark20M microplate reader (Tecan) at 25 °C in technical triplicates. Excitation and emission settings are summarized in Method Table 5.
(§23) For data processing, technical triplicates were averaged and normalized between 0 ( i.e. free dye)
(§24) and 1 (fully bound dye). The dissociation constants KD were determined by fitting a single-site
binding model (Equation 2) to the data.
(§25) at least three independent experiments (N ≥ 3), unless otherwise mentioned.
(§26) between dyes or proteins, log 10 fold changes relative to a reference e.g., parental protein were
(§27) Y: fluorescence intensity [a.u.] or fluorescence polarization [mFP], A: min. FI / FP, B: max.
(§28) protein concentration [mol/L], h: Hill coefficient, K D: dissociation constant [mol/L].

BABP = biological target: T2, BABP (Gallus gallus, UniProt P80226); assay: Fluorescence polarization at constant 20 nM TMR with serial protein dilutions (0-200 uM) in 50 mM HEPES, 50 mM NaCl, pH 7.3 with BSA, 25 °C, N at least 3.; assay type: binding; settings: SD, n = 3
T2 construct: gene FABP1; recombinant from E. coli, N-terminal His10-TEV (pET51b), 15 kDa
T2 sequence (P80226 2-126): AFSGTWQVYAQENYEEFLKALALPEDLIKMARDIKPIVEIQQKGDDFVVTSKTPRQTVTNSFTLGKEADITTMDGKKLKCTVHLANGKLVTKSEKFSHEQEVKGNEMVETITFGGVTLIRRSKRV
Text: (§1) 1 Dye and candidate selection for the development of Rho-tags. A) Chemical structure of TMR and SiR and their corresponding HaloTag Ligand (HTL) derivatives. […] B) BOILED-Egg representation generated with SwissADME for molecules shown in (A). Correlation between the topological polar surface area (TPSA) and predicted water partitioning coefficient (WlogP). Gray area–predicted low passive absorption to the gastrointestinal (GI) system and limited brain access (BBB). Egg white–high probability for GI absorption. Egg yolk–high probability for BBB permeation. Blue dot–substrate is predicted to be actively exported from the central nervous system. […]
(§2) SGCAA medium was used for induction and cells were grown at 30 °C, 250 rpm for 20 h. […] Samples were filtered through 5 mL round-bottom tubes with cell strainer caps (Falcon) and analyzed directly by FACS. […]
(§3) PMT voltages were set based on negative controls (no protein expression). Gates were applied for FSC, SSC, and fluorescence; signals >10³ (bilirubin or rhodamine dyes) were considered positive, background ≤10². […]
(§4) regions were amplified via KOD PCR reaction using primers containing unique barcodes (NGS adaptor ligation oligos, Eurofins Genomics) analyzed by NGS sequencing (Illumina technology, Eurofins Genomics). The NGS results were analyzed using a custom-build pipeline as described previously. […]

SAV2435 = biological target: T3, SAV2435 (Staphylococcus aureus, UniProt A0A0H3K0Y5); assay: as above; assay type: binding; settings: SD, n = 3
T3 construct: recombinant from E. coli, N-terminal His10-TEV (pET51b), 20 kDa
Text: as §1, §2, §3, §4

cpRho-tag = assay: Fluorescence polarization with 0.5-20 nM dye (0.5 nM TMR in Figure S6 titrations) and serial protein dilutions in 50 mM HEPES, 50 mM NaCl, pH 7.3 with BSA, 25 °C, N at least 3.; assay type: binding; settings: SD, n = 3; read-out: K D, other Rho-tag forms and JF549
Method: (§5) electroporation buffer, aliquoted (12 x 50 µL) on ice, and used immediately for electroporation with 1–5 µg DNA precipitated DNA. Cells were transferred to pre-chilled 0.2 cm gap electroporation cuvettes (Bio-Rad), and electroporated using a Gene Pulser Xcell (0.54 kV, 25 µF, infinite resistance, exponential decay). Cells were recovered in 2 mL YPDS at 30 °C, shaking for 1 h and afterwards expanded in 100 mL SDCAA at 30 °C for 2 days.
(§6) YSD protein expression, staining and sorting
as §2, §3
as §4, with “previously. Alternatively, plasmid DNA was transformation into E.cloni 10G and single colonies were analyzed by Sanger sequencing (Eurofins).” for “previously.”
(§7) Stopped-flow kinetic fluorescence anisotropy […]
(§8) FA: fluorescence anisotropy, B: max. […]

[2] = Spectral properties: absolute quantum yield, extinction coefficient, brightness; assay type: physicochemical
Method: Serially fluorophore dilutions (0 – 3 μM) were prepared in activity buffer in presence or absence […]
Measurements were performed in 200 μL volumes in clear-bottom non-binding […]
recorded on the Spark20M microplate reader (Tecan). Following baseline correction, the absorbance was plotted against the dye concentration and the data were fitted linearly. Path […]
coefficients were calculated via the Lambert-Beer law (Equation 1).
Absolute quantum yields were determined at room temperature using a Hamamatsu Quantaurus-QY spectrometer (C11347 model). Rhodamine dyes (1 μM) were tested with and without excess […]
Samples were prepared in 800 μL glass vials
Quantum yield represent as mean ± standard deviation from three technical replicates. The brightness was thereafter calculated using Equation 5. […]

variant 2 = biological target: T4, variant 2; assay: Fluorescence intensity titration of dye (not given; JF646 by comparison with the text) with serial protein dilutions, 50 mM HEPES, 50 mM NaCl, pH 7.3 with BSA, 25 °C, n at least 3.; assay type: binding; settings: SD, n = 3; read-out: KD [M] (Supplementary Table 10, replicates)
T4 construct: Rho-tag background, loop2 library hit
Text: (§9) Supplementary Table 10 | Characterization of putative SiR-tag variants. variant sequence KD [M] TM [° C]
(§10) Binding affinity determined via fluorescence intensity. *data from single replicate. If not stated otherwise, average data and standard deviation from n ≥ 3 individual replicates. Thermostability (T M) determined via […]
(§11) Supplementary Table 11 | Plasmids deposited on Addgene
(§12) Addgene ID plasmid insert expression organism
(§13) 249667 pcDNA5/FRT/TO H2B-Rho-tag-T2A-mEGFP mammalian cells
(§14) 249668 pcDNA5/FRT/TO H2B-SiR-tag-T2A-mEGFP mammalian cells
(§15) 249669 pcDNA5/FRT/TO CD86-Rho-tag mammalian cells
(§16) 249670 pcDNA5/FRT/TO CD86-SiR-tag mammalian cells
(§17) 249671 pTol2-HuC Rho-tag-Pro30-mEGFP-NLS3x zebrafish […]
as §2, §3, §4

SiR-tag = biological target: T5, SiR-tag; assay: as above; assay type: binding; settings: SD, n = 3; read-out: KD [M] (Supplementary Table 10, replicates)
T5 construct: 2 + PROSS8 background combined with P57M/F58Y/R60L and G63N/F64K/D65N/M66H; His10-TEV
Text: as §9, §10, §11, §12, §13, §14, §15, §16, §17, §2, §3, §4

Rho-tag [3] = biological target: T1, Rho-tag; assay: Fluorescence polarization with 0.5-20 nM dye (0.5 nM TMR in Figure S6 titrations) and serial protein dilutions in 50 mM HEPES, 50 mM NaCl, pH 7.3 with BSA, 25 °C, N at least 3.; assay type: binding; settings: SD, n = 3; read-out: K D, other Rho-tag forms and JF549
Method: as §5, §6, §2, §3
as §4, with “previously. Alternatively, plasmid DNA was transformation into E.cloni 10G and single colonies were analyzed by Sanger sequencing (Eurofins).” for “previously.”
as §7, §8

Rho-tag [4] = biological target: T6, Rho-tag (Chlorobaculum tepidum, UniProt Q8KFZ1, A66M/D121K/D126E/E36V/E70D/F125Y/F62Y/G107D/G67E/H40T/K51V/M64F/N138A/Q25R/S152V/S33N/S65D/V17Q/V87I); assay: Fluorescence polarization at constant 20 nM TMR-linked ligand with serial Rho-tag dilutions (0-200 uM), pH 7.3, 25 °C, three independent measurements.; assay type: binding; settings: SD, n = 3
T6 construct: gene CT0179; His10-TEV, recombinant from E. coli
Method: as §18, §19
independent measurements (N = 3).
as §20, §21, §22, §23, §24
binding model (Equation 2) to the data.
as §25, §26, §27, §28

[5] = with 20 µM Rho-tag (TMR, JF549) or SiR-tag (SiR, JF646)

T1 sequence (Q8KFZ1 entry or part of it with the stated changes): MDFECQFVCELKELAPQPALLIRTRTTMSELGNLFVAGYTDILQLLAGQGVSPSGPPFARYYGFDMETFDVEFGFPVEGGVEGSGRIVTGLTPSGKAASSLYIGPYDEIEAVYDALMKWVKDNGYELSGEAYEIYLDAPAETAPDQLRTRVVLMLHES
T3 sequence (A0A0H3K0Y5 entry or part of it): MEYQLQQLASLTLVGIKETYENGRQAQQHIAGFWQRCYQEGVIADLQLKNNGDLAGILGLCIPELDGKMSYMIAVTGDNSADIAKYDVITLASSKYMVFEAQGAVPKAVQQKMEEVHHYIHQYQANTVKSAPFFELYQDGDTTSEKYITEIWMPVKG
T6 sequence (Q8KFZ1 entry or part of it with the stated changes): as the sequence (Q8KFZ1 entry or part of it with the stated changes) above

Compound: tetramethylrhodamine-6-carboxyl SNAP-tag ligand BG (benzylguanine) [TMR-BG]
- Kd (Rho-tag [1]): 0.4 µM

Compound: CN(C)c1ccc2c(-c3ccccc3C(=O)[O-])c3ccc(N(C)C)cc3[o+]c2c1 [TMR, tetramethylrhodamine]
- Kd (BABP): 34 µM
- Kd (SAV2435): 17 µM
- Kd (cpRho-tag): 0.0068 µM
- Absolute quantum yield Φ ([2]; HaloTag7-bound): 0.542 ± 0.013
- Brightness ε × Φ ([2]; HaloTag7-bound): 55 ± 3 M-1cm-1 × 103
- Extinction coefficient ε ([2]; HaloTag7-bound): 101 ± 08 M-1cm-1 × 103
- Brightness ε × Φ ([2]; buffer): 39 ± 2 M-1cm-1 × 103
- Extinction coefficient ε ([2]; buffer): 089 ± 11 M-1cm-1 × 103
- Absolute quantum yield Φ ([2]; buffer (unbound dye)): 0.44 ± 0.01 and 0.439 ± 0.011
- Absolute quantum yield Φ [2, 5]: 0.73 ± 0.02 and 0.728 ± 0.019
- Brightness ε × Φ [2, 5]: 75 ± 1 M-1cm-1 × 103
- Extinction coefficient ε [2, 5]: 103 ± 21 M-1cm-1 × 103

Compound: tetramethylrhodamine-6-carboxyl SNAP-tag ligand CP (chloropyrimidine) [TMR-CP]
- Kd (Rho-tag [1]): 1.9 µM

Compound: C[Si]1(C)c2cc(N3CCC3)ccc2C2(OC(=O)c3ccccc32)c2ccc(N3CCC3)cc21 [JF646]
- Absolute quantum yield Φ [2]: 0.554 ± 0.011
- Extinction coefficient ε [2]: 162 ± 12
- Brightness ε × Φ ([2]; buffer): 051 ± 1 M-1cm-1 × 103
- Extinction coefficient ε ([2]; buffer): 106 ± 24 M-1cm-1 × 103
- Absolute quantum yield Φ ([2]; buffer (unbound dye)): 0.477 ± 0.024
- Absolute quantum yield Φ [2, 5]: 0.660 ± 0.018
- Extinction coefficient ε [2, 5]: 152 ± 17 M-1cm-1 × 103

Compound: C[Si]1(C)c2cc(N3CCC3)ccc2C2(OC(=O)c3ccccc32)c2ccc(N3CCC3)cc21 [JF646, Janelia Fluor 646 (SiR derivative)]
- Kd (variant 2): 9.1e-08 M
- Kd (SiR-tag): 2e-08 M

Compound: O=C1OC2(c3ccc(N4CCC4)cc3Oc3cc(N4CCC4)ccc32)c2ccccc21 [JF549, Janelia Fluor 549 (TMR derivative)]
- Kd (Rho-tag [3]): 0.004 µM

Compound: CN(C)c1ccc2c(-c3cc(C(=O)NCCOCCOCCCCCNS(C)(=O)=O)ccc3C(=O)[O-])c3ccc(=[N+](C)C)cc-3oc2c1 [TMR-S5 (xHTL), tetramethylrhodamine-6-carboxyl exchangeable HaloTag Ligand S5]
- Kd (Rho-tag [1]): 18.8 µM

Compound: O=C1OC2(c3ccc(N4CCC4)cc3Oc3cc(N4CCC4)ccc32)c2ccccc21 [JF549]
- Absolute quantum yield Φ [2]: 0.844 ± 0.008
- Brightness ε × Φ [2]: 128 ± 3
- Extinction coefficient ε [2]: 152 ± 22
- Extinction coefficient ε ([2]; buffer): 101 ± 08 M-1cm-1 × 103
- Absolute quantum yield Φ ([2]; buffer (unbound dye)): 0.842 ± 0.012
- Absolute quantum yield Φ [2, 5]: 0.87 ± 0.02 and 0.871 ± 0.018
- Brightness ε × Φ [2, 5]: 105 ± 4 M-1cm-1 × 103
- Extinction coefficient ε [2, 5]: 121 ± 22 M-1cm-1 × 103

Compound: CN(C)c1ccc2c(-c3cc(C(=O)NCCOCCOCCCCCCCl)ccc3C(=O)[O-])c3ccc(=[N+](C)C)cc-3oc2c1 [TMR-HTL, tetramethylrhodamine-6-carboxyl HaloTag Ligand]
- Kd (Rho-tag [4]): 9.8 µM
